14 compounds from patent publication US11447505B1, “Pyrrolo[2,3-b]pyridine compounds and their use in the treatment of cancer” (priority 2017, dated 2022) can be followed below.

One test addresses ROCK1 (Homo sapiens (Human), UniProt Q13464). The following applies: read-out: ROCK1 Average Ki; 1 μM ATP.
The target in another test is MRCKβ (Homo sapiens (Human), UniProt Q9Y5S2). Briefly: MRCKβ kinase assay (IMAP fluorescence polarization). The test is classed as biochemical. The following applies: 1 μM ATP; read-out: MRCK-B Average Ki. The source says: MRCKα, MRCKβ, ROCK1 and ROCK2 Kinase Assays

The term Ki denotes the dissociation constant of the complex between target and ligand, obtained from inhibition or displacement.

Chain of ROCK1 (Q13464 2-1354 limits assumed): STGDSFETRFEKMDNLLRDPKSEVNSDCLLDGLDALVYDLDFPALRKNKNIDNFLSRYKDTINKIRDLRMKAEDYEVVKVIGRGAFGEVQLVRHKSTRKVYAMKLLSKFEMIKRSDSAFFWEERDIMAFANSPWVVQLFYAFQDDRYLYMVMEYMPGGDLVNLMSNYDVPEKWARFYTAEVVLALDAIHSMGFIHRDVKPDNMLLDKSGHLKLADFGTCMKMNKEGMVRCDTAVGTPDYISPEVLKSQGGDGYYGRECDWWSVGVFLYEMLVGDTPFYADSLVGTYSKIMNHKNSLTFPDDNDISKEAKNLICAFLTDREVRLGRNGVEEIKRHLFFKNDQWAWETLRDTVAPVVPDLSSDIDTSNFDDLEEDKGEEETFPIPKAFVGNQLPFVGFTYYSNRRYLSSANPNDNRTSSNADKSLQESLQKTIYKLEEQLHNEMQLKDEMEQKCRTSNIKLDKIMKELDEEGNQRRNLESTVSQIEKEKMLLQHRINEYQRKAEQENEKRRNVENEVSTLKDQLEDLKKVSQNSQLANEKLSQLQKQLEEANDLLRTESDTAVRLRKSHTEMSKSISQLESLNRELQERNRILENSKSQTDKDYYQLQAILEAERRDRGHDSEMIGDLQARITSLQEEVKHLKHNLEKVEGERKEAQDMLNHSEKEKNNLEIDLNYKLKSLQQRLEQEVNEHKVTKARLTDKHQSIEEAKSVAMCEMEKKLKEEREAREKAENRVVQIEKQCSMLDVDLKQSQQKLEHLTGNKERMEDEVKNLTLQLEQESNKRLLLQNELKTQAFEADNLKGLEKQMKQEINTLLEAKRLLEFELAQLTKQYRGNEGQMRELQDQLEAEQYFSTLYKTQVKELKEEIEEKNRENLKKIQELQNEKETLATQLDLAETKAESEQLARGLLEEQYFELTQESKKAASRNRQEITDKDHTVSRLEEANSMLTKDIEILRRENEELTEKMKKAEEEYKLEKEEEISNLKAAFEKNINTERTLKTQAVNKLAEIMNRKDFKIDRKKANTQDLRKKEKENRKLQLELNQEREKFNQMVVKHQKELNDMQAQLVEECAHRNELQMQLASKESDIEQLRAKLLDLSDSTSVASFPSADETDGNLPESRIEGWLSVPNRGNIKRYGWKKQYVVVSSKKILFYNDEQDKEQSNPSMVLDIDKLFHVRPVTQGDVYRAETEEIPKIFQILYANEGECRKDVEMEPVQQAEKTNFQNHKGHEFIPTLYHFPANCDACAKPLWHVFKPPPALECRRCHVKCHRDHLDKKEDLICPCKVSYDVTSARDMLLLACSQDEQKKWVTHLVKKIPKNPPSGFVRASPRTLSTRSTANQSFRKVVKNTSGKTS

Turning to `c1ncc(-c2c[nH]c3nccc(N4CC[C@@]5(CCCN5)C4)c23)cn1` [Example E124, 4-[(5S)-1,7-diazaspiro[4.4]nonan-7-yl]-3-pyrimidin-5-yl-1H-pyrrolo[2,3-b]pyridine], the Ki at ROCK1 is 76.9 nM; at MRCKβ, 0.947 nM.
The matching figures for `c1csc(-c2c[nH]c3nccc(N4CCC5(CCCN5)C4)c23)n1` (stereo not shown) [Example E154, 2-[4-(1,7-diazaspiro[4.4]nonan-7-yl)-1H-pyrrolo[2,3-b]pyridin-3-yl]thiazole]: 239 nM and 0.37 nM.
For `Cc1cnc(-c2c[nH]c3nccc(N4CCCC5(CCCCN5)C4)c23)s1` (stereo not shown) [Example E147, 2-[4-(1,8-diazaspiro[5.5]undecan-8-yl)-1H-pyrrolo[2,3-b]pyridin-3-yl]-5-methyl-thiazole], the Ki on ROCK1 is 100000 nM; on MRCKβ, 0.0924 nM.
The matching figures for `N#Cc1c[nH]c2nccc(N3CCC4(CCCN4)C3)c12` (stereo not shown) [Example E185, 4-(1,7-diazaspiro[4.4]nonan-7-yl)-1H-pyrrolo[2,3-b]pyridine-3-carbonitrile]: 13.6 nM and 1.92 nM.
The matching figures for `Cc1noc(C)c1-c1c[nH]c2nccc(N3CCCC4(CCCCN4)C3)c12` (stereo not shown) [Example E167, 4-[4-(1,8-diazaspiro[5.5]undecan-8-yl)-1H-pyrrolo[2,3-b]pyridin-3-yl]-3,5-dimethyl-isoxazole]: 100000 nM and 108 nM.
In the same order, the values of `c1cc(-c2c[nH]c3nccc(N4CCCC5(CNC5)C4)c23)cnn1` [Example E156, 4-(2,6-diazaspiro[3.5]nonan-6-yl)-3-pyridazin-4-yl-1H-pyrrolo[2,3-b]pyridine] are 57.4 nM and 1.69 nM.
Turning to `Cc1cnc(-c2c[nH]c3nccc(N4CCCC5(CCCN5)C4)c23)s1` (stereo not shown) [Example E143, 2-[4-(1,9-diazaspiro[4.5]decan-9-yl)-1H-pyrrolo[2,3-b]pyridin-3-yl]-5-methyl-thiazole], the Ki on ROCK1 amounted to 100000 nM; on MRCKβ, 0.882 nM.
The matching figures for `c1ccc(-c2c[nH]c3nccc(N4CCC5(CCCN5)C4)c23)nc1` (stereo not shown) [Example E137, 4-(1,7-diazaspiro[4.4]nonan-7-yl)-3-(2-pyridyl)-1H-pyrrolo[2,3-b]pyridine]: 100000 nM and 2.83 nM.
The matching figures for `c1cc(-c2c[nH]c3nccc(O[C@@H]4CCCNC4)c23)ncn1` [Example E213, 3-pyrimidin-4-yl-4-[[(3R)-3-piperidyl]oxy]-1H-pyrrolo[2,3-b]pyridine]: 3.84 nM and 0.144 nM.
In the case of `c1ccc(-c2c[nH]c3nccc(N4CCC5(CCCCN5)C4)c23)nc1` (stereo not shown) [Example E141, 2-[3-(2-pyridyl)-1H-pyrrolo[2,3-b]pyridin-4-yl]-2,6-diazaspiro[4.5]decane], the figures for the Ki at ROCK1 and on MRCKβ were 109 nM and 0.549 nM, respectively.
As for `c1ccc(-c2c[nH]c3nccc(N4CCC[C@]5(CCCCN5)C4)c23)nc1` [Example E140, (6R)-8-[3-(2-pyridyl)-1H-pyrrolo[2,3-b]pyridin-4-yl]-1,8-diazaspiro[5.5]undecane], the figures for the Ki at ROCK1 and on MRCKβ were 97.7 nM and 7.33 nM, respectively.
In the same order, the values of `Cc1cnc(-c2c[nH]c3nccc(N4CCCC5(CCN5)C4)c23)s1` (stereo not shown) [Example E153, 2-[4-(1,8-diazaspiro[3.5]nonan-8-yl)-1H-pyrrolo[2,3-b]pyridin-3-yl]-5-methyl-thiazole] are 100000 nM and 9.36 nM.
Regarding `NC1CN(c2ccnc3[nH]cc(-c4ccncn4)c23)CCC1F` (stereo not shown) [Example E42, 4-fluoro-1-(3-pyrimidin-4-yl-1H-pyrrolo[2,3-b]pyridin-4-yl)piperidin-3-amine], the figures for the Ki on ROCK1 and at MRCKβ were 79.6 nM and 0.323 nM, respectively.
In the same order, the values of `c1cc(-c2c[nH]c3nccc(N4CCC5(CCNC5)C4)c23)cnn1` (stereo not shown) [Example E164, 4-(2,7-diazaspiro[4.4]nonan-2-yl)-3-pyridazin-4-yl-1H-pyrrolo[2,3-b]pyridine] are 0.448 nM and 1.12 nM.
